# Key:
# [1] = biological target: Macrophage colony-stimulating factor 1 receptor (Homo sapiens) (UniProt P07333); assay: Selectivity interaction (Kinase screening (Nanosyn)) EUB0000604a CSF1R
# [2] = biological target: Mitogen-activated protein kinase kinase kinase kinase 1 (Homo sapiens) (UniProt Q92918); assay: Selectivity interaction (KinomeScan (DiscoverX)) EUB0001049a MAP4K1; details: at 1 µM
# [3] = biological target: Tyrosine-protein kinase Fer (Homo sapiens) (UniProt P16591); assay: Selectivity interaction (KinomeScan (DiscoverX)) EUB0001049a FER; details: at 1 µM
# [4] = biological target: Transcription initiation factor TFIID subunit 1-like (Homo sapiens) (UniProt Q8IZX4); assay: Selectivity interaction (Bromodomain panel (DSF asssay)) EUB0000270b TAF1L
# [5] = biological target: Amine oxidase [flavin-containing] A (Homo sapiens, UniProt P21397); assay: Selectivity interaction (Monoamine Oxidase A, human recombinant baculovirus ) EUB0000877a MAOA
# [6] = biological target: Cyclin-dependent kinase 4/cyclin D1 (Homo sapiens, UniProt P11802)
# [7] = biological target: T1, Mitogen-activated protein kinase 15 (Homo sapiens) (UniProt Q8TD08); assay: Selectivity interaction (Rxn Biology Kinase assay) EUB0001632a MAPK15; details: at 10 µM
# T1 sequence (whole entry): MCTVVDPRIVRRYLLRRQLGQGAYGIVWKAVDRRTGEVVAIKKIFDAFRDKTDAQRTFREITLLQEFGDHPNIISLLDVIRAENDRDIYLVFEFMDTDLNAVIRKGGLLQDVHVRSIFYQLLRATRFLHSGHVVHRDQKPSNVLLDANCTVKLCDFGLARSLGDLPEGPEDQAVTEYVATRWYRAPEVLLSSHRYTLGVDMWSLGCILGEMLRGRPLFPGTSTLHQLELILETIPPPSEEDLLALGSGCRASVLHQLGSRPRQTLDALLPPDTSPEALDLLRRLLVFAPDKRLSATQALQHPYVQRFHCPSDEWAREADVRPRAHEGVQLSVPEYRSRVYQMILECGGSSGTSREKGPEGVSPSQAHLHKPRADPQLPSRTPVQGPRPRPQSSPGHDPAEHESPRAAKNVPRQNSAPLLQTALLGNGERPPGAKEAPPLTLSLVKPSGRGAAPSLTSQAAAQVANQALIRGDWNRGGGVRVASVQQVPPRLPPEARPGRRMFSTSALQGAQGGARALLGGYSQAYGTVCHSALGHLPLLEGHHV
# [8] = biological target: Homeodomain-interacting protein kinase 3 (Homo sapiens, UniProt Q9H422); assay: Selectivity interaction (KinomeScan (DiscoverX)) EUB0000229b HIPK3; details: at 10 µM
# [9] = biological target: T2, Phosphatidylinositol 4,5-bisphosphate 3-kinase catalytic subunit delta isoform (Homo sapiens) (UniProt O00329); assay: Selectivity interaction (KinomeScan (DiscoverX)) EUB0000229b PIK3CD; details: at 10 µM
# T2 sequence (whole entry): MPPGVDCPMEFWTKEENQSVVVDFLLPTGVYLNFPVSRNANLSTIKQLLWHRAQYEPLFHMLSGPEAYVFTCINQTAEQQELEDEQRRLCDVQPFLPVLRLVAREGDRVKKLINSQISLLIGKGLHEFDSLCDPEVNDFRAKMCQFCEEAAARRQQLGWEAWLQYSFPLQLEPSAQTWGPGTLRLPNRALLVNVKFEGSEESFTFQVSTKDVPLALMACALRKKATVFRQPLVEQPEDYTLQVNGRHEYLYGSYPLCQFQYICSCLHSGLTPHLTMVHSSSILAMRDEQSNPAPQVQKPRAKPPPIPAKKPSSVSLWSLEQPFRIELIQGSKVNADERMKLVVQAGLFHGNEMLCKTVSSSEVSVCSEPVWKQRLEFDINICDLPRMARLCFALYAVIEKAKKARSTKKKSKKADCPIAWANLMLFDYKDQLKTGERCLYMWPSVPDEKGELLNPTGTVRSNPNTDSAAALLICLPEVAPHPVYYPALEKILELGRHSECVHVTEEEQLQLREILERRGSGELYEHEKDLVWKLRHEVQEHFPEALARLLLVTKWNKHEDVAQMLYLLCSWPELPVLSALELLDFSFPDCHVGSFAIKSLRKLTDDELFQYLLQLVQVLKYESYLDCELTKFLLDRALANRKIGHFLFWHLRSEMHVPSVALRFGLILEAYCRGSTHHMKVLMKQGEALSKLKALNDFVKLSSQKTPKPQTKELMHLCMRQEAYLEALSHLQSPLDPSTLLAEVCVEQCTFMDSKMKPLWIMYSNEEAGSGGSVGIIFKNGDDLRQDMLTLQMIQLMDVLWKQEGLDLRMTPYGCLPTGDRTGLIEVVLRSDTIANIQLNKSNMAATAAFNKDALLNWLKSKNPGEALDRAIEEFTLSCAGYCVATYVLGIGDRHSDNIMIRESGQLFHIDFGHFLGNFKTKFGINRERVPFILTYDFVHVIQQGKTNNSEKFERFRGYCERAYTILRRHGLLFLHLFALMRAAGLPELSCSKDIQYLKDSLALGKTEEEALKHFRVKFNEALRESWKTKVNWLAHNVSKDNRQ
# [10] = biological target: Serine/threonine-protein kinase pim-1 (Homo sapiens, UniProt P11309); assay: Selectivity interaction (KinomeScan (DiscoverX)) EUB0001079a PIM1; details: at 1 µM
# [11] = biological target: T3, Serine/threonine-protein kinase tousled-like 1 (Homo sapiens) (UniProt Q9UKI8); assay: Selectivity interaction (KinomeScan (DiscoverX)) EUB0000092b TLK1; details: at 10 µM
# T3 sequence (whole entry): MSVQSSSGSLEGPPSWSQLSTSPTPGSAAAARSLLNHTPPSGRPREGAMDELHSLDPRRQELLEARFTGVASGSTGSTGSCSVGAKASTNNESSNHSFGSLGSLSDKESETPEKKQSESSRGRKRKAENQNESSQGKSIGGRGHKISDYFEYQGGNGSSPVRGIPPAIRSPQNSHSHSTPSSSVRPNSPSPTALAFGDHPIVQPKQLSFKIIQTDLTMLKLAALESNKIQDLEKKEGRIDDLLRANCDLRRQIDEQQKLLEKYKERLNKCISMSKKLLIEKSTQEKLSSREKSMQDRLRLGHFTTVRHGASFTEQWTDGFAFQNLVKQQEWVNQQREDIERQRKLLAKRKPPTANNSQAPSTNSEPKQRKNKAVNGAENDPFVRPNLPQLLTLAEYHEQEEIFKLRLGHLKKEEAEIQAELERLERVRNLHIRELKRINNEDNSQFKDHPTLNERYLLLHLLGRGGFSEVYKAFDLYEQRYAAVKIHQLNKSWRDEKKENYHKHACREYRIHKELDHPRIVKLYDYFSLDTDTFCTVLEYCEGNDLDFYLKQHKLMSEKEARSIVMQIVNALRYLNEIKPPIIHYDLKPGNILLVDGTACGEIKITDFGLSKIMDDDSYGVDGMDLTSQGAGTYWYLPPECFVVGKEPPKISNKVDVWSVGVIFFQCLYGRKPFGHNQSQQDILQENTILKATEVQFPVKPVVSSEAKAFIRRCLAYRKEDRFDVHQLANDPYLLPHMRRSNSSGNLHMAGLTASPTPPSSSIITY
# Chain of Tyrosine-protein kinase Fer (Homo sapiens) (P16591 whole entry, looked up): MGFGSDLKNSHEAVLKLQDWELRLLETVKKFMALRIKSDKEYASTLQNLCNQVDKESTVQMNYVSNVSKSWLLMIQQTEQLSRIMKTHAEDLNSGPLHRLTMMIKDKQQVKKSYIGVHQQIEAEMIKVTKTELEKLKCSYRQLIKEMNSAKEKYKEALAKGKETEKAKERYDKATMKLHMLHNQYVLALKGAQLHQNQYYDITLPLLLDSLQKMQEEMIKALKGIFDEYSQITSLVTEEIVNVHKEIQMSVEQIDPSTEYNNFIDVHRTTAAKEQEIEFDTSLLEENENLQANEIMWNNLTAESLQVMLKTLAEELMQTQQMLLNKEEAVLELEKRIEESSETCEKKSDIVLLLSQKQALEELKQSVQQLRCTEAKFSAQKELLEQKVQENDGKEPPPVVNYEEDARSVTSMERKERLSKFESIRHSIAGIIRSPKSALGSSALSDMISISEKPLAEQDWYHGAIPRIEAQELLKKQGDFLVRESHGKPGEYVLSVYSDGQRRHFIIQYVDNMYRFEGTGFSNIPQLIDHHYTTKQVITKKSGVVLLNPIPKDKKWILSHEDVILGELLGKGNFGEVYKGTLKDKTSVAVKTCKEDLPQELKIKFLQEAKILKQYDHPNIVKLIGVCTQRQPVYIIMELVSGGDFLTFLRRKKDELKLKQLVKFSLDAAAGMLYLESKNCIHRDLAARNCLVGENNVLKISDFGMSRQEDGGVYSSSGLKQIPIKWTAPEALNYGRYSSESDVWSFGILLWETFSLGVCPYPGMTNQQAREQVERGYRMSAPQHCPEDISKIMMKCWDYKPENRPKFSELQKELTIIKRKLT
# Chain of Mitogen-activated protein kinase kinase kinase kinase 1 (Homo sapiens) (Q92918 whole entry, looked up): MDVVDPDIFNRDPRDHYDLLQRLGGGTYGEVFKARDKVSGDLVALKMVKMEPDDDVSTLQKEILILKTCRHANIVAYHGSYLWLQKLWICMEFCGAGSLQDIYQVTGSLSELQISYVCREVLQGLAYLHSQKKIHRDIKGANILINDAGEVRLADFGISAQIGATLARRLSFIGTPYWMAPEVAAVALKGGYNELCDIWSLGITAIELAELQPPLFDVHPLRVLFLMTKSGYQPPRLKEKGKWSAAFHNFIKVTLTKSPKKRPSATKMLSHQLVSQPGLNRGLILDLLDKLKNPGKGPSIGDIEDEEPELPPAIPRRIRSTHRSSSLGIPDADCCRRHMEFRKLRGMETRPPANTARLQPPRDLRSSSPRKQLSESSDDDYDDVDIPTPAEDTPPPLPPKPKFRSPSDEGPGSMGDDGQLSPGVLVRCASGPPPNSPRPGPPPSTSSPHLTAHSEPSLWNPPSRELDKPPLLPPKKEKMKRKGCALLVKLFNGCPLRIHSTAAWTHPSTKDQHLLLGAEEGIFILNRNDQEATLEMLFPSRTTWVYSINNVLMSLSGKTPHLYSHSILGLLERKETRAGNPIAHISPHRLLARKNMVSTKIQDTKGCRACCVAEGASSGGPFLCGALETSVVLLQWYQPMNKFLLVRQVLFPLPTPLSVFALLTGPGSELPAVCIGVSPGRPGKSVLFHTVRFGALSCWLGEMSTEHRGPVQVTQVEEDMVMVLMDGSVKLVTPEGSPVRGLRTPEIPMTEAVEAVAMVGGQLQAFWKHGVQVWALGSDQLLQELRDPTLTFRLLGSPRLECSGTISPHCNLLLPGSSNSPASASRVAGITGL
# Chain of Homeodomain-interacting protein kinase 3 (Q9H422 whole entry, looked up, canonical isoform): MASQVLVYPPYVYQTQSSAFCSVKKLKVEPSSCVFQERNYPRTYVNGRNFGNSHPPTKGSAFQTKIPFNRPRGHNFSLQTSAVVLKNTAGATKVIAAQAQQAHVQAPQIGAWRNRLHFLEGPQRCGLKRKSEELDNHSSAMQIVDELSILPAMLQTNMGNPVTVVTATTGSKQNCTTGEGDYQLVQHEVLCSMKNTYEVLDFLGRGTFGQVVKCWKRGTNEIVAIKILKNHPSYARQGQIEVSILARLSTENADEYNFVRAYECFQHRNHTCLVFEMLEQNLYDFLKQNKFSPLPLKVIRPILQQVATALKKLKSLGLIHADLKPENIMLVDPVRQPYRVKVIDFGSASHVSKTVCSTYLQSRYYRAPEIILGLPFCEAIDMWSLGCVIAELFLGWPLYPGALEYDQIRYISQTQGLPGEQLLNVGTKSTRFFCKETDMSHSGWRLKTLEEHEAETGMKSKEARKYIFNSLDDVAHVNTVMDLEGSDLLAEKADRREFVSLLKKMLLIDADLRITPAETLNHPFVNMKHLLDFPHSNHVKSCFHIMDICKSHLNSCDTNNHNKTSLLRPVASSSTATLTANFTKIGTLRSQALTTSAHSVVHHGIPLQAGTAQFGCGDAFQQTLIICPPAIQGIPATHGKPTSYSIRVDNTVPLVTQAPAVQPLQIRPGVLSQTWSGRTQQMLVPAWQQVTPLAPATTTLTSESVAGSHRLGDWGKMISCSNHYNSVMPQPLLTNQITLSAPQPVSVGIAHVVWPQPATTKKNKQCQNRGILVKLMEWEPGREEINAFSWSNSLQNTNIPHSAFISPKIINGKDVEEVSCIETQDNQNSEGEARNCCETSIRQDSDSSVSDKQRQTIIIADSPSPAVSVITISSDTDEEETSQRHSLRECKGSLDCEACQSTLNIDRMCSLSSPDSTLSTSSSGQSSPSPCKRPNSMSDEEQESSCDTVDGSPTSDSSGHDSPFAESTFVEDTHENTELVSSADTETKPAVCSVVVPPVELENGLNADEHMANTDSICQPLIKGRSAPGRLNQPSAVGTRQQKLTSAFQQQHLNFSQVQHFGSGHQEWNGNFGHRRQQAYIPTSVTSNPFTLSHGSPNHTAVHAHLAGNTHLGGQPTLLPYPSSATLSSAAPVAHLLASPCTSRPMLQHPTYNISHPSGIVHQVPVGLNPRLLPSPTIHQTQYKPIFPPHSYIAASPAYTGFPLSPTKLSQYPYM
# Chain of Serine/threonine-protein kinase pim-1 (P11309 whole entry, looked up): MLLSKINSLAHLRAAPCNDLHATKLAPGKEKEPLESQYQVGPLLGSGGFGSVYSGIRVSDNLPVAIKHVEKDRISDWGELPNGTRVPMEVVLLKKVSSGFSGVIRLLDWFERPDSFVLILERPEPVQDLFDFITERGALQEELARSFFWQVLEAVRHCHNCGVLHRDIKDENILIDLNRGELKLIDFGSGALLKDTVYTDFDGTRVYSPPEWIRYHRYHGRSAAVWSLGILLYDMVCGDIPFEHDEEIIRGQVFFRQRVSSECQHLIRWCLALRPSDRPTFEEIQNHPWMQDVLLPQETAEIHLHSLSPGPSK
# Chain of Amine oxidase [flavin-containing] A (P21397 whole entry): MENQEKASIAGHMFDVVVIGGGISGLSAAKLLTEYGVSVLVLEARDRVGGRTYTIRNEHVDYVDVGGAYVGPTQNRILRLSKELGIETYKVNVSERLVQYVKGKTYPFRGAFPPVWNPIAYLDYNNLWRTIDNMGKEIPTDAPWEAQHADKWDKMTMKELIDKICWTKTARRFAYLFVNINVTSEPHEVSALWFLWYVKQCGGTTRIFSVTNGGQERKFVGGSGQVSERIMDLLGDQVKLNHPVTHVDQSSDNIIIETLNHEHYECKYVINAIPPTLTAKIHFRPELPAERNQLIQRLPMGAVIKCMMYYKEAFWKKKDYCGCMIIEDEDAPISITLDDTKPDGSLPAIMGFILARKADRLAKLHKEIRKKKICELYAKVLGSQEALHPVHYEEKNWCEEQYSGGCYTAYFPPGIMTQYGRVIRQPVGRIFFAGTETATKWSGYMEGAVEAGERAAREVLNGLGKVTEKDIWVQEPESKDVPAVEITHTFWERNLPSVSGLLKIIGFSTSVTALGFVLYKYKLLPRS
# Chain of Cyclin-dependent kinase 4/cyclin D1 (P11802 whole entry): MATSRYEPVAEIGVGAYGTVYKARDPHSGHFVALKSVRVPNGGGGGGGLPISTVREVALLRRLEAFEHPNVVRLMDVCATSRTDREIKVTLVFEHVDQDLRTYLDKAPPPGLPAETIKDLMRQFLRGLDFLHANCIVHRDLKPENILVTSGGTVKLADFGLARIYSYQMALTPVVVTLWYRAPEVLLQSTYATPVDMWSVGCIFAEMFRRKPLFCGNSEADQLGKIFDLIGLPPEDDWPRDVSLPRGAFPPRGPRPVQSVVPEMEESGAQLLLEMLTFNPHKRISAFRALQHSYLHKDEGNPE
# Chain of Cyclin-dependent kinase 4/cyclin D1 (P24385 whole entry, further chain): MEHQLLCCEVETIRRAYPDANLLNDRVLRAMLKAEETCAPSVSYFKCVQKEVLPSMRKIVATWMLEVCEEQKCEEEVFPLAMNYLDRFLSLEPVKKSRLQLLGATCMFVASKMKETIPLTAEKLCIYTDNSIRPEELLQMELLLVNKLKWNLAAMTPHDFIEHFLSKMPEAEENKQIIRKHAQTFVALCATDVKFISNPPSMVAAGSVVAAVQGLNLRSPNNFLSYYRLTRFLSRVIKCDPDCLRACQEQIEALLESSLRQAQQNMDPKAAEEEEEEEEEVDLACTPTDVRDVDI
compound,measurement,setting,value
Cc1cnc(Nc2ccc(F)cc2Cl)nc1-c1c[nH]c(C(=O)N[C@H](CO)c2cccc(Cl)c2)c1,% of inhibition,[1],6%
COc1cc(Nc2nc(C)cc(-c3cnn4nc(OC)ccc34)n2)cc(C(F)(F)F)c1,% of control,[2],86%
same,% of control,[3],93%
Cc1cc(CN)cc(C)c1-c1ncn(C)c1-c1cncn1C,dTM,[4],-1.56 K
CCC(=O)N1CC[C@H](Nc2ncnc3c2CN(c2cnc(OC)c(C(F)(F)F)c2)CC3)C1 [LENIOLISIB],IC50,[5],> 30 µM
CCc1cccc(CC)c1NC(=O)c1nn(C)c2c1CCc1cnc(Nc3ccc(C(=O)NC4CCN(C)CC4)cc3OC(F)(F)F)nc1-2,IC50,[6],> 10 µM
Cn1cc(-n2cnc3c(NCc4nc5cc(Cl)c(Cl)cc5[nH]4)nc(N4CCOCC4)nc32)cn1,% of inhibition,[7],-25.6%
COc1cc(N(C)c2ccnc3ccc(C(F)(F)F)cc23)cc(OC)c1OC,% binding,[8],81%
same,% binding,[9],86%
Nc1cnc(N2CCc3cc(S(=O)(=O)Nc4c(F)cc(Cl)cc4F)cc(N4CCCC4=O)c32)nc1 [TP-020n],% of control,[10],88%
CCC(=O)N1CCN(c2ccc(-n3c(=O)ccc4cnc5ccc(-c6cnc7ccccc7c6)cc5c43)cc2C(F)(F)F)CC1,% of control,[11],100%
